According to patent publication US12692261B2, “Substituted heterocyclic compounds and therapeutic uses thereof” (Bayer Aktiengesellschaft, priority 2020, dated 2026):
Where two headings read alike, the source gives them in different places.

Columns and labels:
[1] = biological target: T1, wild-type Epidermal Growth Factor Receptor (EGFR) (Homo sapiens, UniProt P00533); test: WT-EGFR Kinase Assay (TR-FRET, 2 mM ATP); type: biochemical
T1 construct: a fragment of human EGFR (amino acids R669 to A1210); made in house; host or cells: Sf9 insect cells
T1 sequence (P00533 669-1210): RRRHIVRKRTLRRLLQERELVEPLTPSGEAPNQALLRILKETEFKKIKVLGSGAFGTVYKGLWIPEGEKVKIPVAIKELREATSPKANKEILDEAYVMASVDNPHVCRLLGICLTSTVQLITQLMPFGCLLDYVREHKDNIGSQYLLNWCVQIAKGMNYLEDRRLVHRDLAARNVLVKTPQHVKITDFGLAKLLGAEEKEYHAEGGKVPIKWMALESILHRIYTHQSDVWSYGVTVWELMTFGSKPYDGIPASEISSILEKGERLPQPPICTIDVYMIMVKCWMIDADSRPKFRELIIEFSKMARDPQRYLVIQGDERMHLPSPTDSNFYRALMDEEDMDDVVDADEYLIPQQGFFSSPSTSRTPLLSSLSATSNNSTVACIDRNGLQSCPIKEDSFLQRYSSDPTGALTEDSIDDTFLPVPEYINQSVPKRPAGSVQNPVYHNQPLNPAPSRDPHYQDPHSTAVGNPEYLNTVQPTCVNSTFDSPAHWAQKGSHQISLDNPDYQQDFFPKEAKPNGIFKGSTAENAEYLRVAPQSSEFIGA
Procedure, shortened: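 GST-fused human EGFR fragment (R669-A1210) from Sf9 cells, typically 7.6 pg/μL, pre-incubated with compound 15 min at 22° C in Hepes pH 7.0 buffer with MgCl2, DTT and vanadate; biotinylated peptide substrate. After EDTA stop, phosphopeptide detected by TR-FRET (anti-phosphotyrosine Tb-cryptate/streptavidin-XL665), 665/620 nm emission ratio.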

[2] = biological target: T2, full-length human CSNK1A1 (Homo sapiens, UniProt P48729); test: CSNK1A1 Assay 2 (ADP-Glo, 1 μM ATP, substrate biotin-Ahx-KRRRAL-pS-VASLPGL); type: biochemical; details: Table 3, read-out: CSNK1A1 Assay 2 IC50 [mol/l] (median)
T2 construct: N-terminal Glutathion-S-Transferase (GST) and full-length human CSNK1A1; purchased Life Technologies PV4174; host or cells: baculovirus infected insect cells
T2 sequence (P48729 whole entry): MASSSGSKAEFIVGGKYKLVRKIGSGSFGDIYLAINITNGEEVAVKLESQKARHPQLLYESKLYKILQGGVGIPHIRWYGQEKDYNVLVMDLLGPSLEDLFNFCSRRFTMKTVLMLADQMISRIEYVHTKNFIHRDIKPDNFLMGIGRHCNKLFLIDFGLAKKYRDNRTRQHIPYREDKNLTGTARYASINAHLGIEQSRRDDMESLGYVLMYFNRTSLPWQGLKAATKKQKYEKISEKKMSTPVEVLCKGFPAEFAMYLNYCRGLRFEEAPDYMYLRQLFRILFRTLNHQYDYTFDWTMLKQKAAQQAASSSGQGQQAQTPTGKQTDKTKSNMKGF
Procedure, shortened: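 Activity read as ADP generated (ADP-Glo luciferase luminescence, 1 h detection steps at 22 °C). Enzyme was insect-cell-expressed GST–full-length human CSNK1A1, compound-preincubated 15 min before reaction with phosphopeptide substrate and 1 μM ATP in 50 mM HEPES pH 7.5, 10 mM MgCl2.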

[3] = EGFR Wildtyp 2 mM ATP IC50 [mol/l] (median), Table 4
[4] = read-out: EGFR Wildtyp 2 mM ATP IC50 [mol/l] (median), Table 4

SMILES | IC50 [1, 3] | IC50 [2] | IC50 [1, 4]
O=C(Nc1cc(-c2[nH]c3nc(F)cnc3c2-c2ccccn2)ccn1)C(CC(F)F)c1ccc(F)cc1 (racemic) [Example 60, (2RS)-4,4-difluoro-2-(4-fluorophenyl)-N-{4-[3-fluoro-7-(pyridin-2-yl)-5H-pyrrolo[2,3-b]pyrazin-6-yl]pyridin-2-yl}butanamide] | > 20000 nM | 5.81 nM | –
COc1cnc2c(-c3ccccn3)c(-c3ccnc(NC(=O)C(CC(F)F)c4ccc(F)cc4)c3)[nH]c2c1 (single isomer, unassigned) [Example 82, 4,4-difluoro-2-(4-fluorophenyl)-N-{4-[6-methoxy-3-(pyridin-2-yl)-1H-pyrrolo[3,2-b]pyridin-2-yl]pyridin-2-yl}butanamide] | > 20000 nM | 2.68 nM | –
O=C(Nc1cc(-c2[nH]c3c(OC[C@@H]4COCCO4)cc(F)nc3c2-c2ccccn2)ccn1)C(CC(F)F)c1ccc(F)cc1 (single isomer, unassigned) [Example 59, (2R or S)—N-{4-[7-{[(2S)-1,4-dioxan-2-yl]methoxy}-5-fluoro-3-(pyridin-2-yl)-1H-pyrrolo[3,2-b]pyridin-2-yl]pyridin-2-yl}-4,4-difluoro-2-(4-fluorophenyl)butanamide] | – | 12.7 nM | > 20000 nM
O=C(Nc1cc(-c2[nH]c3c(OCC(F)F)ncnc3c2-c2ccccn2)ccn1)C(CC(F)F)c1ccc(F)cc1 (racemic) [Example 78, (2RS)—N-{4-[4-(2,2-difluoroethoxy)-7-(pyridin-2-yl)-5H-pyrrolo[3,2-d]pyrimidin-6-yl]pyridin-2-yl}-4,4-difluoro-2-(4-fluorophenyl)butanamide] | > 20000 nM | 5.16 nM | –
O=C(Nc1cc(-c2[nH]c3c(OCC4CCCO4)cc(F)nc3c2-c2ccccn2)ccn1)C(CC(F)F)c1ccc(F)cc1 (racemic) [Example 61, (2RS)-4,4-difluoro-N-{4-[5-fluoro-7-{[(2RS)-oxolan-2-yl]methoxy}-3-(pyridin-2-yl)-1H-pyrrolo[3,2-b]pyridin-2-yl]pyridin-2-yl}-2-(4-fluorophenyl)butanamide] | > 20000 nM | 11.1 nM | –
CN1CCN(c2cc(F)nc3c(-c4ccccn4)c(-c4ccnc(NC(=O)C(CC(F)F)c5ccc(F)cc5)c4)[nH]c23)CC1 (racemic) [Example 56, (2RS)-4,4-difluoro-N-{4-[5-fluoro-7-(4-methylpiperazin-1-yl)-3-(pyridin-2-yl)-1H-pyrrolo[3,2-b]pyridin-2-yl]pyridin-2-yl}-2-(4-fluorophenyl)butanamide] | > 20000 nM | 3.19 nM | –
O=C(Nc1cc(-c2[nH]c3c(O[C@H]4CCOC4)cc(F)nc3c2-c2ccccn2)ccn1)C(CC(F)F)c1ccc(F)cc1 (single isomer, unassigned) [Example 55, (2R or S)-4,4-difluoro-N-{4-[5-fluoro-7-{[(3S)-oxolan-3-yl]oxy}-3-(pyridin-2-yl)-1H-pyrrolo[3,2-b]pyridin-2-yl]pyridin-2-yl}-2-(4-fluorophenyl)butanamide] | – | 18.3 nM | > 20000 nM
COc1cnc2c(-c3ccccn3)c(-c3ccnc(NC(=O)C(CC(F)F)c4ccc(F)cc4)c3)[nH]c2c1 (stereo not drawn) [Example 81, 4,4-difluoro-2-(4-fluorophenyl)-N-{4-[6-methoxy-3-(pyridin-2-yl)-1H-pyrrolo[3,2-b]pyridin-2-yl]pyridin-2-yl}butanamide] | > 20000 nM | 4.02 nM | –
O=C(Nc1cc(-c2[nH]c3c(OCC(F)F)ncnc3c2-c2ccccn2)ccn1)C(CC(F)F)c1ccc(F)cc1 (single isomer, unassigned) [Example 79, (2R or S)—N-{4-[4-(2,2-difluoroethoxy)-7-(pyridin-2-yl)-5H-pyrrolo[3,2-d]pyrimidin-6-yl]pyridin-2-yl}-4,4-difluoro-2-(4-fluorophenyl)butanamide] | > 20000 nM | 3.1 nM | –
